For 24 compounds, Ki results are on record in ChEMBL document CHEMBL1135364, “Synthesis and structure-activity relationships of oxime neurokinin antagonists: discovery of potent arylamides” (Bioorg Med Chem Lett, 2002).

In one assay the target is T1, Substance-K receptor (Homo sapiens, UniProt P21452).
T1 sequence (P21452 whole entry): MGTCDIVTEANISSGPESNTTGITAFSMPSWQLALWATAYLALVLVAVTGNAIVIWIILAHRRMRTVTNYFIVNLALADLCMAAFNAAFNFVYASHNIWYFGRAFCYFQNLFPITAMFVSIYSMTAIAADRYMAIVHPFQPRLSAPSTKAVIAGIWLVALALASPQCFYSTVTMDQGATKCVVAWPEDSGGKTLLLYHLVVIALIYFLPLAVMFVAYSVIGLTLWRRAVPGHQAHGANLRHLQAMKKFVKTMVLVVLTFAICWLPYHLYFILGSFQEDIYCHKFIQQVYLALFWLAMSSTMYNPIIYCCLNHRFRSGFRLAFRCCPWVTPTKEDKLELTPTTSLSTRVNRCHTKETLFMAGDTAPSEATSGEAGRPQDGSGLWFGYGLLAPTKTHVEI
Kind of assay: Binding affinity test against Neurokinin 2 (NK2) receptor.

The target in the next assay is Substance-P receptor (Homo sapiens, UniProt P25103). Kind of assay: Tested for binding affinity against neurokinin 1 (NK1) receptor.
Substance-P receptor, sequence (P25103 whole entry): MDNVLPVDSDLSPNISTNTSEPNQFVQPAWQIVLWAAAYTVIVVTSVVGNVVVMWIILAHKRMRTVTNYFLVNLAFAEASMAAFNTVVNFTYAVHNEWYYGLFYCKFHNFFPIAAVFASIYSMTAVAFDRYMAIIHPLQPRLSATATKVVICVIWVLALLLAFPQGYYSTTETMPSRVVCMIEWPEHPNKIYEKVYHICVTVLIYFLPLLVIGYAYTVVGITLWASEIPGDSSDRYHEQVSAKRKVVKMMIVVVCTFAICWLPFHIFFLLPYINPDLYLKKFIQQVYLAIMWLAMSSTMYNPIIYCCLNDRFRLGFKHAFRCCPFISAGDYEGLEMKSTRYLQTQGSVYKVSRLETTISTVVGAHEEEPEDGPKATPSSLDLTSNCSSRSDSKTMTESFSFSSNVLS

By Ki is commonly meant the equilibrium dissociation constant of an inhibitor or competing ligand from its target. `CO/N=C(\COCc1cc(C)cc(C)c1)C(CCN1CCC(O)(c2ccccc2)CC1)c1ccc(Cl)c(Cl)c1` (configuration not stated) came in with an inhibitory constant (Ki) at Substance-K receptor of 8 nM.

For `CO/N=C(\C(=O)N(C)Cc1cc(C(F)(F)F)cc(C(F)(F)F)c1)C(CCN1CCC(O)(c2ccccc2)CC1)c1ccc(Cl)c(Cl)c1` (configuration not stated), the inhibition constant Ki amounted to 6 nM on Substance-P receptor and 167 nM at Substance-K receptor.

The compound `CO/N=C(\CN(C)C(=O)c1ccccc1OC)C(CCN1CCC(O)(c2ccccc2)CC1)c1ccc(Cl)c(Cl)c1` (configuration not stated) had a Ki at Substance-K receptor of 4 nM.

On Substance-K receptor, `CO/N=C(\CNC(=O)c1cc(C(F)(F)F)cc(C(F)(F)F)c1)C(CCN1CCC(O)(c2ccccc2)CC1)c1ccc(Cl)c(Cl)c1` (configuration not stated) yielded an inhibitory constant (Ki) of 2 nM.

`CO/N=C(\CN(C)C(=O)c1cc(C)nc(-c2cccs2)c1)C(CCN1CCC(O)(c2ccccc2)CC1)c1ccc(Cl)c(Cl)c1` (configuration not stated): the results for the inhibition constant (Ki) at Substance-P receptor and on Substance-K receptor were 2 nM and 6 nM, respectively.

Consider `CO/N=C(\CN(C)C(=O)Nc1cc(C(F)(F)F)cc(C(F)(F)F)c1)C(CCN1CCC(O)(c2ccccc2)CC1)c1ccc(Cl)c(Cl)c1` (configuration not stated), for which the Ki at Substance-P receptor was determined as 5 nM; at Substance-K receptor, 8 nM.

On to `CO/N=C(\CN(C)Cc1cc(C(F)(F)F)cc(C(F)(F)F)c1)C(CCN1CCC(O)(c2ccccc2)CC1)c1ccc(Cl)c(Cl)c1` (configuration not stated), for which the inhibition constant Ki is 42 nM at Substance-P receptor and 22 nM at Substance-K receptor.

On to `CO/N=C(\CNC(=O)c1ccccc1OC)C(CCN1CCC(O)(c2ccccc2)CC1)c1ccc(Cl)c(Cl)c1` (configuration not stated), for which the Ki at Substance-K receptor worked out at 54 nM.

`CO/N=C(\COCc1noc(C(C)(C)C)n1)C(CCN1CCC(O)(c2ccccc2)CC1)c1ccc(Cl)c(Cl)c1` (configuration not stated) returned a Ki on Substance-K receptor of 1 nM.

As for `CO/N=C(\CN(C)C(=O)c1cc(C)cc(C)c1)C(CCN1CCC(O)(c2ccccc2)CC1)c1ccc(Cl)c(Cl)c1` (configuration not stated), the Ki on Substance-P receptor is 1 nM; at Substance-K receptor it was 2 nM.

Consider `CO/N=C(\CN(C)C(=O)Oc1cc(C(F)(F)F)cc(C(F)(F)F)c1)C(CCN1CCC(O)(c2ccccc2)CC1)c1ccc(Cl)c(Cl)c1` (configuration not stated), for which the Ki on Substance-P receptor turned out to be 6 nM; at Substance-K receptor it was 11 nM.

With `CO/N=C(\CN(C)C(=O)c1cc(OC)c(Br)c(OC)c1)C(CCN1CCC(O)(c2ccccc2)CC1)c1ccc(Cl)c(Cl)c1` (configuration not stated), the Ki amounted to 5 nM on Substance-P receptor and 8 nM on Substance-K receptor.

`CO/N=C(\CN(C)C(=O)c1ccc(N(C)C)c2ccccc12)C(CCN1CCC(O)(c2ccccc2)CC1)c1ccc(Cl)c(Cl)c1` (configuration not stated) displayed a Ki at Substance-K receptor of 7 nM.

Consider `CO/N=C(\CN(C)C(=O)c1ccc(C)s1)C(CCN1CCC(O)(c2ccccc2)CC1)c1ccc(Cl)c(Cl)c1` (configuration not stated), for which, at Substance-K receptor, the Ki was found to be 2 nM.

For `CO/N=C(\CN(C)C(=O)c1cc(C)nc(C)c1)C(CCN1CCC(O)(c2ccccc2)CC1)c1ccc(Cl)c(Cl)c1` (configuration not stated), the affinity on Substance-K receptor corresponds to a Ki of 6 nM.

With `CO/N=C(\CN(C)C(=O)c1cc(C)nc(N2CCCC2)c1)C(CCN1CCC(O)(c2ccccc2)CC1)c1ccc(Cl)c(Cl)c1` (configuration not stated), the Ki on Substance-P receptor was 2 nM; at Substance-K receptor, 3 nM.

For `CO/N=C(\CN(C)C(=O)c1cc(OC)c(OC)c(OC)c1)C(CCN1CCC(O)(c2ccccc2)CC1)c1ccc(Cl)c(Cl)c1` (configuration not stated), the affinity at Substance-K receptor, expressed as Ki, was 3 nM.

Turning to `CO/N=C(\COCc1cc(F)cc(C(F)(F)F)c1)C(CCN1CCC(O)(c2ccccc2)CC1)c1ccc(Cl)c(Cl)c1` (configuration not stated), on Substance-K receptor, the inhibitory constant (Ki) was 10 nM.

On to `CO/N=C(\COCc1cc(F)cc(F)c1)C(CCN1CCC(O)(c2ccccc2)CC1)c1ccc(Cl)c(Cl)c1` (configuration not stated), for which the inhibition constant (Ki) at Substance-K receptor turned out to be 42 nM. This Ki is about 4.2-fold higher than that of the compound before.

As for `CO/N=C(\COCc1cc(OC)cc(OC)c1)C(CCN1CCC(O)(c2ccccc2)CC1)c1ccc(Cl)c(Cl)c1` (configuration not stated), at Substance-K receptor, the Ki stood at 18 nM.

On Substance-K receptor, `CO/N=C(\COCc1ccc(F)c2ccccc12)C(CCN1CCC(O)(c2ccccc2)CC1)c1ccc(Cl)c(Cl)c1` (configuration not stated) registered an inhibition constant (Ki) of 21 nM. This Ki and that of the compound before are within 1.5-fold of each other.

The compound `CO/N=C(\COCc1cc(Cl)cc(Cl)c1)C(CCN1CCC(O)(c2ccccc2)CC1)c1ccc(Cl)c(Cl)c1` (configuration not stated) showed an inhibition constant (Ki) on Substance-K receptor of 6 nM. Compared with the last compound, the Ki is about 3.5-fold lower.

Take `CO/N=C(\COCc1cc(OC)c(OC)c(OC)c1)C(CCN1CCC(O)(c2ccccc2)CC1)c1ccc(Cl)c(Cl)c1` (configuration not stated): the inhibition constant Ki at Substance-K receptor was 28 nM. Compared with the last compound, the Ki is about 4.7-fold higher.

At Substance-K receptor, `CO/N=C(\COCc1ccccn1)C(CCN1CCC(O)(c2ccccc2)CC1)c1ccc(Cl)c(Cl)c1` (configuration not stated) showed an inhibitory constant (Ki) of 43 nM.
